US11925611B2, “Use of ZT-1A and analogs thereof to prevent and/or treat neurodegenerative and neurocognitive disorders” (United States Government as Represented by the Department …, priority 2021, dated 2024)
Read-outs that look alike come from different tables or passages of the source.

Legend:
Type in all cases: cell-based
SPAK = SPAK (Homo sapiens, UniProt Q9UEW8); experiment: Cellular inhibition of SPAK phosphorylation (pSer373); conditions: 50% inhibition of phosphorylation, n = 3, — = no inhibition
Description: (§1) 8. Cellular Activity Profile of Inhibitors with the Salicyclic Amide
(§2) A list of the compounds evaluated for their ability to inhibit phosphorylation of SPAK/NKCC1/KCC3 activity is illustrated in Table 1 below.

NKCC1 = experiment: Cellular inhibition of NKCC1 phosphorylation (pThr203); conditions: n = 3, — = no inhibition
Description: as §1, §2

KCC3 = experiment: Cellular inhibition of KCC3 phosphorylation (pThr991, pThr1048); conditions: Isotonic conditions; n = 3; — = no inhibition; read-out: KCC3 pThr1048 (μM) Iso
Description: as §1, §2

[1] = Hypotonic conditions, read-out: SPAK pSer373 (μM) hypo
[2] = Isotonic conditions, read-out: SPAK pSer373 (μM) Iso
[3] = Hypotonic conditions, read-out: NKCC1 pThr203 (μM) hypo
[4] = Isotonic conditions, read-out: NKCC1 pThr203 (μM) Iso

Compound | IC50 (SPAK; [1]) [µM] | IC50 (SPAK; [2]) [µM] | IC50 (NKCC1; [3]) [µM] | IC50 (NKCC1; [4]) [µM] | IC50 (KCC3) [µM]
Cc1cc(C(C#N)c2ccc(Cl)cc2)c(Cl)cc1NC(=O)c1ccccc1N (stereo not drawn) [1d(ZT-06-022-01)] | 3 | 3 | 3 | 1 | 3
Cc1cc(C(C#N)c2ccc(Cl)cc2)c(Cl)cc1NC(=O)c1ccccc1S (stereo not drawn) [1c (ZT-05-037-01)] | 3 | 3 | 3 | 1 | 3
Cc1cc(C(C#N)c2ccc(Cl)cc2)c(Cl)cc1NC(=O)c1cc(F)ccc1O (stereo not drawn) [1g(ZT-06-055-01)] | 3 | 3 | 3 | 1 | 3
Cc1cc(C(C#N)c2ccc(Cl)cc2)c(Cl)cc1NC(=O)c1ccccc1O (stereo not drawn) [1b] | 3 | 3 | 1 | 3 | 3
Cc1cc(C(C#N)c2ccc(Cl)cc2)c(Cl)cc1NC(=O)c1cc(Cl)cc(Cl)c1O (stereo not drawn) [1f] | 3 | 3 | 3 | 1 | 3
Cc1cc(C(C#N)c2ccc(Cl)cc2)c(Cl)cc1NC(=O)c1cccc(F)c1O (stereo not drawn) [1h(ZT-06-039-01)] | 3 | 3 | 3 | 1 | 3
